Laboratory results: the NIST ThermoML archive (doi:10.1016/j.jct.2017.07.016)

Experiment: xn = mol fraction of the nth substance listed
Settings: 96.7 kPa, Liquid; for viscosity: Capillary tube (Ostwald / Ubbelohde) method; for mass density: Vibrating tube method

CCCCCCn1cc[n+](C)c1.[Cl-] [1-hexyl-3-methylimidazolium chloride] + C[S+](C)[O-]
Settings	mass density [kg/m3]	viscosity [mPa·s]
303.15 K, x1 = 0.141	1078.5	6.523
303.15 K, x1 = 0.278	1068.64	23.07
303.15 K, x1 = 0.366	1063.06	54.37
303.15 K, x1 = 0.472	1057.13	134.28
303.15 K, x1 = 0.606	1050.34	343.91
303.15 K, x1 = 0.773	1043.22	806.64
303.15 K, x1 = 0.878	1039.66	2111.1
303.15 K, x1 = 1	1036.07	5718.5
308.15 K, x1 = 0.141	1074.26	5.691
308.15 K, x1 = 0.278	1064.88	18.67
308.15 K, x1 = 0.366	1059.5	41.74
308.15 K, x1 = 0.472	1053.74	100.12
308.15 K, x1 = 0.606	1047.15	242.91
308.15 K, x1 = 0.773	1040.19	554.65
308.15 K, x1 = 0.878	1036.71	1348.9
308.15 K, x1 = 1	1033.22	3430.8
313.15 K, x1 = 0.141	1070.08	4.951
313.15 K, x1 = 0.278	1061.15	15.46
313.15 K, x1 = 0.366	1055.94	33.33
313.15 K, x1 = 0.472	1050.36	76.29
313.15 K, x1 = 0.606	1043.96	176.38
313.15 K, x1 = 0.773	1037.17	384.99
313.15 K, x1 = 0.878	1033.77	895.04
313.15 K, x1 = 1	1030.38	2146.1
318.15 K, x1 = 0.141	1065.87	4.385
318.15 K, x1 = 0.278	1057.41	12.95
318.15 K, x1 = 0.366	1052.4	26.72
318.15 K, x1 = 0.472	1046.99	58.57
318.15 K, x1 = 0.606	1040.76	130.64
318.15 K, x1 = 0.773	1034.12	274.48
318.15 K, x1 = 0.878	1030.8	607.51
318.15 K, x1 = 1	1027.56	1390.4
323.15 K, x1 = 0.141	1061.67	3.892
323.15 K, x1 = 0.278	1053.68	10.99
323.15 K, x1 = 0.366	1048.87	21.9
323.15 K, x1 = 0.472	1043.65	46.32
323.15 K, x1 = 0.606	1037.58	98.7
323.15 K, x1 = 0.773	1031.12	201.06
323.15 K, x1 = 0.878	1027.89	425.84
323.15 K, x1 = 1	1024.75	928.1
328.15 K, x1 = 0.141	1057.48	3.493
328.15 K, x1 = 0.278	1049.95	9.439
328.15 K, x1 = 0.366	1045.35	18.22
328.15 K, x1 = 0.472	1040.31	37.12
328.15 K, x1 = 0.606	1034.41	76.27
328.15 K, x1 = 0.773	1028.15	150.51
328.15 K, x1 = 0.878	1025.02	306.13
328.15 K, x1 = 1	1021.92	638.79
333.15 K, x1 = 0.141	1053.31	3.154
333.15 K, x1 = 0.278	1046.23	8.18
333.15 K, x1 = 0.366	1041.84	15.34
333.15 K, x1 = 0.472	1036.99	30.3
333.15 K, x1 = 0.606	1031.26	60.05
333.15 K, x1 = 0.773	1025.19	114.9
333.15 K, x1 = 0.878	1022.16	227.29
333.15 K, x1 = 1	1019.13	453.59
338.15 K, x1 = 0.141	1049.14	2.85
338.15 K, x1 = 0.278	1042.51	7.175
338.15 K, x1 = 0.366	1038.35	13.14
338.15 K, x1 = 0.472	1033.67	25.52
338.15 K, x1 = 0.606	1028.12	48.07
338.15 K, x1 = 0.773	1022.24	89.02
338.15 K, x1 = 0.878	1019.29	169.96
338.15 K, x1 = 1	1016.38	327.52
343.15 K, x1 = 0.141	1045.01	2.594
343.15 K, x1 = 0.278	1038.81	6.291
343.15 K, x1 = 0.366	1034.87	11.28
343.15 K, x1 = 0.472	1030.39	20.88
343.15 K, x1 = 0.606	1025	39.06
343.15 K, x1 = 0.773	1019.29	70.28
343.15 K, x1 = 0.878	1016.44	129.41
343.15 K, x1 = 1	1013.65	243.04
348.15 K, x1 = 0.141	1040.88	2.378
348.15 K, x1 = 0.278	1035.11	5.597
348.15 K, x1 = 0.366	1031.39	9.738
348.15 K, x1 = 0.472	1027.11	17.65
348.15 K, x1 = 0.606	1021.88	32.05
348.15 K, x1 = 0.773	1016.35	56.52
348.15 K, x1 = 0.878	1013.59	100.3
348.15 K, x1 = 1	1010.91	183.45
353.15 K, x1 = 0.141	1036.68	2.184
353.15 K, x1 = 0.278	1031.43	4.998
353.15 K, x1 = 0.366	1027.93	8.538
353.15 K, x1 = 0.472	1023.84	15.07
353.15 K, x1 = 0.606	1018.78	26.7
353.15 K, x1 = 0.773	1013.43	45.71
353.15 K, x1 = 0.878	1010.75	81.75
353.15 K, x1 = 1	1008.18	140.06

CCCCCCn1cc[n+](C)c1.[Cl-] [1-hexyl-3-methylimidazolium chloride] + c1ccncc1
Settings	mass density [kg/m3]	viscosity [mPa·s]
303.15 K, x1 = 0.145	1000.09	3.442
303.15 K, x1 = 0.281	1013.46	12.9
303.15 K, x1 = 0.369	1019.3	27.09
303.15 K, x1 = 0.477	1025.04	89.47
303.15 K, x1 = 0.608	1029.07	266.74
303.15 K, x1 = 0.778	1033.09	1015.3
303.15 K, x1 = 0.877	1034.58	1617.5
303.15 K, x1 = 1	1036.07	5718.5
308.15 K, x1 = 0.145	995.92	3.081
308.15 K, x1 = 0.281	1009.71	11.03
308.15 K, x1 = 0.369	1015.8	22.93
308.15 K, x1 = 0.477	1021.74	68.74
308.15 K, x1 = 0.608	1025.91	192.89
308.15 K, x1 = 0.778	1030.09	686.42
308.15 K, x1 = 0.877	1031.66	1126
308.15 K, x1 = 1	1033.22	3430.8
313.15 K, x1 = 0.145	991.76	2.785
313.15 K, x1 = 0.281	1006	9.532
313.15 K, x1 = 0.369	1012.3	19.12
313.15 K, x1 = 0.477	1018.45	53.91
313.15 K, x1 = 0.608	1022.78	144.2
313.15 K, x1 = 0.778	1027.11	476.57
313.15 K, x1 = 0.877	1028.74	773.43
313.15 K, x1 = 1	1030.38	2146.1
318.15 K, x1 = 0.145	987.59	2.533
318.15 K, x1 = 0.281	1002.31	8.293
318.15 K, x1 = 0.369	1008.82	16.07
318.15 K, x1 = 0.477	1015.17	43.07
318.15 K, x1 = 0.608	1019.67	109.94
318.15 K, x1 = 0.778	1024.17	341.19
318.15 K, x1 = 0.877	1025.86	528.89
318.15 K, x1 = 1	1027.56	1390.4
323.15 K, x1 = 0.145	983.43	2.307
323.15 K, x1 = 0.281	998.61	7.283
323.15 K, x1 = 0.369	1005.33	13.71
323.15 K, x1 = 0.477	1011.9	35.05
323.15 K, x1 = 0.608	1016.57	85.19
323.15 K, x1 = 0.778	1021.24	249.82
323.15 K, x1 = 0.877	1022.99	376.53
323.15 K, x1 = 1	1024.75	928.1
328.15 K, x1 = 0.145	979.27	2.128
328.15 K, x1 = 0.281	994.88	6.442
328.15 K, x1 = 0.369	1001.86	11.78
328.15 K, x1 = 0.477	1008.64	28.97
328.15 K, x1 = 0.608	1013.48	67.45
328.15 K, x1 = 0.778	1018.31	185.55
328.15 K, x1 = 0.877	1020.12	273.63
328.15 K, x1 = 1	1021.92	638.79
333.15 K, x1 = 0.145	975.09	1.956
333.15 K, x1 = 0.281	991.21	5.738
333.15 K, x1 = 0.369	998.39	10.23
333.15 K, x1 = 0.477	1005.4	24.13
333.15 K, x1 = 0.608	1010.39	53.7
333.15 K, x1 = 0.778	1015.38	141.51
333.15 K, x1 = 0.877	1017.26	203.81
333.15 K, x1 = 1	1019.13	453.59
338.15 K, x1 = 0.145	970.94	1.793
338.15 K, x1 = 0.281	987.55	5.141
338.15 K, x1 = 0.369	994.92	8.972
338.15 K, x1 = 0.477	1002.17	20.39
338.15 K, x1 = 0.608	1007.32	43.75
338.15 K, x1 = 0.778	1012.47	109.4
338.15 K, x1 = 0.877	1014.43	154.83
338.15 K, x1 = 1	1016.38	327.52
343.15 K, x1 = 0.145	966.81	1.686
343.15 K, x1 = 0.281	983.89	4.636
343.15 K, x1 = 0.369	991.46	7.907
343.15 K, x1 = 0.477	998.94	17.36
343.15 K, x1 = 0.608	1004.24	35.95
343.15 K, x1 = 0.778	1009.55	86.53
343.15 K, x1 = 0.877	1011.6	120.81
343.15 K, x1 = 1	1013.65	243.04
348.15 K, x1 = 0.145	962.62	1.57
348.15 K, x1 = 0.281	980.23	4.198
348.15 K, x1 = 0.369	988.01	6.978
348.15 K, x1 = 0.477	995.69	14.96
348.15 K, x1 = 0.608	1001.17	30.11
348.15 K, x1 = 0.778	1006.66	68.87
348.15 K, x1 = 0.877	1008.78	94.01
348.15 K, x1 = 1	1010.91	183.45
353.15 K, x1 = 0.145	958.42	1.451
353.15 K, x1 = 0.281	976.57	3.822
353.15 K, x1 = 0.369	984.56	6.279
353.15 K, x1 = 0.477	992.4	13
353.15 K, x1 = 0.608	998.08	25.29
353.15 K, x1 = 0.778	1003.77	56.47
353.15 K, x1 = 0.877	1005.97	75.17
353.15 K, x1 = 1	1008.18	140.06
